Experiments:
human CCR2 = biological target: T1, human CCR2 (Homo sapiens, UniProt P41597); assay: Functional Ca2+ release test (B-1); assay type: cell-based; conditions: Chem-1 cell line transfected with human CCR2; 50% inhibition of the MCP-1 effect, MCP-1 at EC50 (about 5 nM); in some cases means of several determinations
T1 construct: host or cells: Chem-1 cell line
T1 sequence (P41597 1-360 isoform P41597-2): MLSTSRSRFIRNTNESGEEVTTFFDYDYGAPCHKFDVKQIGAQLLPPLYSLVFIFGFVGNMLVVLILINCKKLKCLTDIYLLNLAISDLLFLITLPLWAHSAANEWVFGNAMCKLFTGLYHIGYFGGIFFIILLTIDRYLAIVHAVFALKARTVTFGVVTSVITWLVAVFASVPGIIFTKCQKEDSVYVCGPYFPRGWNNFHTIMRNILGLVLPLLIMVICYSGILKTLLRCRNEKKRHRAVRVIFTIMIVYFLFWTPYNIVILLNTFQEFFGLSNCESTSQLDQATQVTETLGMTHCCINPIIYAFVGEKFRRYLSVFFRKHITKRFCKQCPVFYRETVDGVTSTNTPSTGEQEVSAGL
Outline: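 Chem-1 cells expressing human CCR2, loaded with Fluo-4 for 60 min at 37° C, were preincubated 10 min with compound (10-point, 1:3.16 dilutions), then stimulated with MCP-1 at its predetermined EC50 (about 5 nM). Ca2+ release was monitored for 120 s. IC50 came from a 4-parameter Hill fit.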

murine CCR2 = biological target: T2, murine CCR2 (Mus musculus, UniProt P51683); assay: Functional β-arrestin recruiting test with murine MCP-1 (B-2b); assay type: cell-based; conditions: U2OS β-arrestin cell line transfected with murine CCR2; agonist murine MCP-1; in some cases means of several determinations
T2 construct: host or cells: U2OS β-arrestin cell line
Outline: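 In a PathHunter β-galactosidase complementation assay, U2OS cells expressing murine CCR2 were preincubated 10 min with compound (10-point, 1:3.16 dilutions), then challenged with murine MCP-1 at its predetermined EC50 for 90 min at 37 °C. Luminescence was read after 60 min, and IC50 was fitted with a 4-parameter Hill function.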

T2 sequence (P51683 whole entry): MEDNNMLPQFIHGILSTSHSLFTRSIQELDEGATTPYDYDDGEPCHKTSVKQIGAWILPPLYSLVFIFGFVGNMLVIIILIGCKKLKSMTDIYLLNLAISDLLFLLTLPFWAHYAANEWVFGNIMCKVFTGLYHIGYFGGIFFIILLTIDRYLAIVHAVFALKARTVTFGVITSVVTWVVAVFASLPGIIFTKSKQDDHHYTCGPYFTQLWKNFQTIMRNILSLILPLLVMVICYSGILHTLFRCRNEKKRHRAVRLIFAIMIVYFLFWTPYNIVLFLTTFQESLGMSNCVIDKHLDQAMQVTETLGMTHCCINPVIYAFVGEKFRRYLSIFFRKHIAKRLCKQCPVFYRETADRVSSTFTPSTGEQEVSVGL

Row | IC50 (human CCR2) [µM] | IC50 (murine CCR2) [µM] | Structure (SMILES)
1 | 0.0039 | 0.584 | CCc1cc(-c2nc(C(F)(F)F)c(Oc3ccc(Cl)c(Cl)c3)c(=O)[nH]2)no1 [Example 218]
2 | 0.0072 | 1.04 | O=c1[nH]c(-c2cc(C3CC3)on2)nc(C(F)(F)F)c1Oc1ccc(Cl)c(Cl)c1 [Example 219]
3 | 0.0035 | 0.775 | O=c1[nH]c(-c2cc(C3CC3)on2)nc(C(F)(F)F)c1Oc1ccc(Cl)c(C(F)(F)F)c1 [Example 220]
4 | 0.0013 | 0.447 | COCc1cc(-c2nc(C(F)(F)F)c(Oc3ccc(Cl)c(C(F)(F)F)c3)c(=O)[nH]2)no1 [Example 221]
5 | 0.0065 | 0.551 | COCc1cc(-c2nc(C(F)(F)F)c(Oc3ccc(Cl)c(Cl)c3)c(=O)[nH]2)no1 [Example 222]
6 | 0.0001 | 0.021 | Cc1cc(Oc2c(C(F)(F)F)nc(-c3cc[nH]n3)[nH]c2=O)ccc1Cl [Example 223]
7 | 0.0003 | 0.047 | Cc1ccc(Oc2c(C(F)(F)F)nc(-c3cc[nH]n3)[nH]c2=O)cc1Cl [Example 224]
8 | 0.0003 | 0.15 | Cn1ccc(-c2nc(C(F)(F)F)c(Oc3ccc(Cl)c(Cl)c3)c(=O)[nH]2)n1 [Example 225]
9 | 0.0005 | 0.087 | Cn1ccc(-c2nc(C(F)(F)F)c(Oc3ccc(Cl)c(C(F)(F)F)c3)c(=O)[nH]2)n1 [Example 226]
10 | 0.0064 | 0.164 | O=c1[nH]c(-c2nsc(Cl)c2Cl)nc(C(F)(F)F)c1Oc1ccc(Cl)c(Cl)c1 [Example 227]
11 | 0.0053 | 0.227 | O=c1[nH]c(-c2nsc(Cl)c2Cl)nc(C(F)(F)F)c1Oc1ccc(Cl)c(C(F)(F)F)c1 [Example 228]
12 | 0.0005 | 0.044 | O=c1[nH]c(-c2ccon2)nc(C(F)(F)F)c1Oc1ccc(Cl)c(Cl)c1 [Example 229]
13 | 0.0004 | 0.044 | O=c1[nH]c(-c2ccon2)nc(C(F)(F)F)c1Oc1ccc(Cl)c(C(F)(F)F)c1 [Example 230]
14 | 0.0001 | 0.249 | Cc1cc(-c2nc(C(F)(F)F)c(Oc3ccc(Cl)c(Cl)c3)c(=O)[nH]2)no1 [Example 231]
15 | 0.0003 | 0.17 | Cc1cc(-c2nc(C(F)(F)F)c(Oc3ccc(Cl)c(C(F)(F)F)c3)c(=O)[nH]2)no1 [Example 232]
16 | 0.0002 | 0.043 | O=c1[nH]c(-c2ccsn2)nc(C(F)(F)F)c1Oc1ccc(Cl)c(Cl)c1 [Example 233]
17 | 0.0003 | 0.027 | O=c1[nH]c(-c2ccsn2)nc(C(F)(F)F)c1Oc1ccc(Cl)c(C(F)(F)F)c1 [Example 234]
18 | 0.02 | 0.796 | COc1nn(C)cc1-c1nc(C(F)(F)F)c(Oc2ccc(Cl)c(C(F)(F)F)c2)c(=O)[nH]1 [Example 235]
19 | 0.692 | 0.72 | COc1nn(C)cc1-c1nc(C(F)(F)F)c(Oc2ccc(Cl)c(Cl)c2)c(=O)[nH]1 [Example 236]
20 | 0.001 | 0.08 | COc1csnc1-c1nc(C(F)(F)F)c(Oc2ccc(Cl)c(Cl)c2)c(=O)[nH]1 [Example 237]
21 | 0.0009 | 0.039 | COc1csnc1-c1nc(C(F)(F)F)c(Oc2ccc(Cl)c(C(F)(F)F)c2)c(=O)[nH]1 [Example 238]

Row | IC50 (human CCR2) [µM] | IC50 (murine CCR2) [µM] | Structure (SMILES)
22 | 0.0026 | 0.089 | O=c1[nH]c(-c2nscc2O)nc(C(F)(F)F)c1Oc1ccc(Cl)c(C(F)(F)F)c1 [Example 239]
23 | 0.0005 | 0.107 | CCn1ccc(-c2nc(C(F)(F)F)c(Oc3ccc(Cl)c(C(F)(F)F)c3)c(=O)[nH]2)n1 [Example 240]
24 | 0.0008 | 0.076 | Cc1cnc(-c2nc(C(F)(F)F)c(Oc3ccc(Cl)c(Cl)c3)c(=O)[nH]2)[nH]1 [Example 241]
25 | 0.0018 | 0.153 | Cc1cnc(-c2nc(C(F)(F)F)c(Oc3ccc(Cl)c(C(F)(F)F)c3)c(=O)[nH]2)[nH]1 [Example 242]
26 | 0.123 | 5.53 | O=c1[nH]c(-n2cnc(Cl)n2)nc(C(F)(F)F)c1Oc1ccc(Cl)c(Cl)c1 [Example 247]
27 | 0.0022 | 1.23 | CSc1cnn(-c2nc(C(F)(F)F)c(Oc3ccc(Cl)c(Cl)c3)c(=O)[nH]2)c1 [Example 248]
28 | 0.0009 | 0.254 | COc1cnn(-c2nc(C(F)(F)F)c(Oc3ccc(Cl)c(Cl)c3)c(=O)[nH]2)c1 [Example 249]
29 | 0.0041 | 0.942 | CC(C)Oc1cnn(-c2nc(C(F)(F)F)c(Oc3ccc(Cl)c(Cl)c3)c(=O)[nH]2)c1 [Example 250]
30 | 0.076 | 6.76 | CC(C)(C)c1nncn1-c1nc(C(F)(F)F)c(Oc2ccc(Cl)c(Cl)c2)c(=O)[nH]1 [Example 251]
31 | 0.113 | 6.94 | O=c1[nH]c(-n2ccc(C(F)(F)F)n2)nc(C(F)(F)F)c1Oc1ccc(Cl)c(Cl)c1 [Example 252]
32 | 0.24 | 4.23 | O=c1[nH]c(-n2cc(C(F)(F)F)cn2)nc(C(F)(F)F)c1Oc1ccc(Cl)c(Cl)c1 [Example 253]
33 | 0.015 | 0.613 | COc1nc(N)n(-c2nc(C(F)(F)F)c(Oc3ccc(Cl)c(Cl)c3)c(=O)[nH]2)n1 [Example 254]
34 | 0.038 | 1.34 | O=c1[nH]c(-n2cncn2)nc(C(F)(F)F)c1Oc1ccc(Cl)c(Cl)c1 [Example 255, 5-(3,4-Dichlorophenoxy)-2-(1H-1,2,4-triazol-1-yl)-6-(trifluoromethyl)pyrimidin-4(3H)-one]
35 | 0.0008 | 0.1 | Nc1ccn(-c2nc(C(F)(F)F)c(Oc3ccc(Cl)c(Cl)c3)c(=O)[nH]2)n1 [Example 256, 2-(3-Amino-1H-pyrazol-1-yl)-5-(3,4-dichlorophenoxy)-6-(trifluoromethyl)pyrimidin-4(3H)-one]
36 | 0.0028 | 0.276 | Nc1cnc2cnn(-c3nc(C(F)(F)F)c(Oc4ccc(Cl)c(Cl)c4)c(=O)[nH]3)c2c1 [Example 257]
37 | 0.0099 | 0.949 | O=c1[nH]c(-n2ncc3ncccc32)nc(C(F)(F)F)c1Oc1ccc(Cl)c(Cl)c1 [Example 258]
38 | 0.624 | 3.53 | O=c1[nH]c(C2CCNCC2)nc(C(F)(F)F)c1Oc1ccc(Cl)c(C(F)(F)F)c1 [Example 259, 5-[4-chloro-3-(trifluoromethyl)phenoxy]-2-(piperidin-4-yl)-6-(trifluoromethyl)pyrimidin-4(3H)-one]
39 | 0.0004 | 0.053 | COc1cn(C)nc1-c1nc(C(F)(F)F)c(Oc2ccc(Cl)c(C(F)(F)F)c2)c(=O)[nH]1 [Example 264, 5-[4-Chloro-3-(trifluoromethyl)phenoxy]-2-(4-methoxy-1-methyl-1H-pyrazol-3-yl)-6-(trifluoromethyl)pyrimidin-4(3H)-one]
40 | 0.012 | 0.257 | C[S+]([O-])c1cccnc1-c1nc(C(F)(F)F)c(Oc2ccc(Cl)c(C(F)(F)F)c2)c(=O)[nH]1 (stereo not shown) [Example 265]
41 | 0.0018 | 0.196 | CS(=O)(=O)c1cccnc1-c1nc(C(F)(F)F)c(Oc2ccc(Cl)c(C(F)(F)F)c2)c(=O)[nH]1 [Example 266, 5-[4-Chloro-3-(trifluoromethyl)phenoxy]-2-[3-(methylsulphonyl)pyridin-2-yl]-6-(trifluoromethyl)pyrimidin-4(3H)-one]

Reference: patent US20160237059A1, “HETEROCYCLIC SUBSTITUTED TRIFLUOROMETHYL PYRIMIDINONES AND THEIR USE” (BAYER PHARMA AKTIENGESELLSCHAFT, priority 2013, published 2016)
